Active and inactive are the calls of the source. No cut-off for these calls is given here.
Legend:
[1] = biological target: T1, Sphingosine 1-phosphate receptor 1 (Homo sapiens, UniProt P21453); test: Agonist activity at S1P1 (unknown origin) expressed in human HEK293/Galpha15 cells assessed as Ca2+ activation at 1 uM measured for 2 hrs by FLIPR analysis relative to control; format: functional, cell-based
[2] = biological target: T1, Sphingosine 1-phosphate receptor 1; test: Agonist activity at S1P1 (unknown origin) expressed in human HEK293/Galpha15 cells assessed as Ca2+ activation measured for 2 hrs by FLIPR analysis; format: functional, cell-based
[3] = biological target: T1, Sphingosine 1-phosphate receptor 1; test: Agonist activity at S1P1 (unknown origin) expressed in PathHunter CHO-K1 EDG1 beta-arrestin cells assessed as beta-arrestin2 recruitment at 1 uM incubated for 90 mins by chemiluminescence based assay relative to control; format: functional, cell-based; settings: filed as agonist
[4] = biological target: T1, Sphingosine 1-phosphate receptor 1; test: Agonist activity at S1P1 (unknown origin) expressed in PathHunter CHO-K1 EDG1 beta-arrestin cells assessed as beta-arrestin2 recruitment incubated for 90 mins by chemiluminescence based assay; format: functional, cell-based
[5] = Microsomal stability in human liver microsomes assessed as parent compound remaining preincubated for 5 mins followed by NADPH addition measured after 60 mins by LC-MS/MS analysis; format: ADME, Microsome; settings: time 65 min, read-out: Stability
[6] = Microsomal stability in rat liver microsomes assessed as parent compound remaining preincubated for 5 mins followed by NADPH addition measured after 60 mins by LC-MS/MS analysis; format: ADME, Microsome; settings: time 65 min, read-out: Stability
[7] = Microsomal stability in mouse liver microsomes assessed as parent compound remaining preincubated for 5 mins followed by NADPH addition measured after 60 mins by LC-MS/MS analysis; format: ADME, Microsome; settings: time 65 min, read-out: Stability
CYP1A2 = biological target: T2, CYP1A2 (Homo sapiens, UniProt P05177); test: Inhibition of CYP1A2 in human liver microsomes using phenacetin as substrate assessed as residual activity at 10 uM preincubated for 5 mins followed by substrate addition and measured after 15 mins in presence of NADPH by LC-MS/MS analysis; format: ADME, Microsome; settings: probe phenacetin, time 20 min, read-out: Activity
T2 sequence (P05177 whole entry): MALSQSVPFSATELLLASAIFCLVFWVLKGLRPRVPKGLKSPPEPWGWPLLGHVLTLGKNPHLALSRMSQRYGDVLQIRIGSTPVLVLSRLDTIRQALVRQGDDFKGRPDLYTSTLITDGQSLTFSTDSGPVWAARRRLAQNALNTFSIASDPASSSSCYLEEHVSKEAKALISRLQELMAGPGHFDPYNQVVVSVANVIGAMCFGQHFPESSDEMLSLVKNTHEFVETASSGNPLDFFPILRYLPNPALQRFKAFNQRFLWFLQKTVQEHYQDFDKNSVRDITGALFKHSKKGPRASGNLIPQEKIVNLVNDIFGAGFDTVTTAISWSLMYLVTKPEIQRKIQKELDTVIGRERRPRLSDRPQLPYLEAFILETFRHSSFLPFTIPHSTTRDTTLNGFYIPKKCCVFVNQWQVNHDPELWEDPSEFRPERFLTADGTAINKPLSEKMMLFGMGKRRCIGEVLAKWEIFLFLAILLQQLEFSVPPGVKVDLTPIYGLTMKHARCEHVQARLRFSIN

CYP2C9 = CYP2C9 (Homo sapiens, UniProt P11712); test: Inhibition of CYP2C9 in human liver microsomes using diclofenac as substrate assessed as residual activity at 10 uM preincubated for 5 mins followed by substrate addition and measured after 15 mins in presence of NADPH by LC-MS/MS analysis; format: ADME, Microsome; settings: probe diclofenac, time 20 min, read-out: Activity
Sequence of CYP2C9 (P11712 whole entry): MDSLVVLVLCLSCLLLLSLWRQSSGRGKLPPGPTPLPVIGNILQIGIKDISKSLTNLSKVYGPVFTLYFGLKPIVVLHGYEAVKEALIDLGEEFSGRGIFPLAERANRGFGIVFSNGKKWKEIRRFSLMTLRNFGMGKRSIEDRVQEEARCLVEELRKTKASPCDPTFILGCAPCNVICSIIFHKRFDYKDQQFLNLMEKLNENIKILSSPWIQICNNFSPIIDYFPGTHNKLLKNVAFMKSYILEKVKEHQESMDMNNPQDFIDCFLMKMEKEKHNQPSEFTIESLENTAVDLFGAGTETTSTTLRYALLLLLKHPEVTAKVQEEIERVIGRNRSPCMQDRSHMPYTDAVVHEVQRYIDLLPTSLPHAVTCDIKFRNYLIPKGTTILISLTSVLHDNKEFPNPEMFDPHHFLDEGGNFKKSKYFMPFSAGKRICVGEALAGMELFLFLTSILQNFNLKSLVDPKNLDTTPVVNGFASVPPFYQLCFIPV

CYP2D6 = CYP2D6 (Homo sapiens, UniProt P10635); test: Inhibition of CYP2D6 in human liver microsomes using dextromethorphan as substrate assessed as residual activity at 10 uM preincubated for 5 mins followed by substrate addition and measured after 15 mins in presence of NADPH by LC-MS/MS analysis; format: ADME, Microsome; settings: probe dextromethorphan, time 20 min, read-out: Activity
Sequence of CYP2D6 (P10635 whole entry): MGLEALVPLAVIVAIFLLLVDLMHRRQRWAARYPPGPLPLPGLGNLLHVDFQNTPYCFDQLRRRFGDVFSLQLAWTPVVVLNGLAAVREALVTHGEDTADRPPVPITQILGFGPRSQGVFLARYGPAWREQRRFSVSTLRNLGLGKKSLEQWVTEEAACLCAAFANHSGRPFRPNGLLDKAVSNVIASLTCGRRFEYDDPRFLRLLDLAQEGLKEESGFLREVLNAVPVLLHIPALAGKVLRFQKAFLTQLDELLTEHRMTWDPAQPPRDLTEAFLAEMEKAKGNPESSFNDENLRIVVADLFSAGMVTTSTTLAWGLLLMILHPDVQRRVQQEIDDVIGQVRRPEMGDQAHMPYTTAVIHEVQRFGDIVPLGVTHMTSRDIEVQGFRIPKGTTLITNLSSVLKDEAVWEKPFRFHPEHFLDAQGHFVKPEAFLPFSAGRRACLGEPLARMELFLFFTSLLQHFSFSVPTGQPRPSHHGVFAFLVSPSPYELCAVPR

CYP3A4 = CYP3A4 (Homo sapiens, UniProt P08684); test: Inhibition of CYP3A4 in human liver microsomes using midazolam as substrate assessed as residual activity at 10 uM preincubated for 5 mins followed by substrate addition and measured after 15 mins in presence of NADPH by LC-MS/MS analysis; format: ADME, Microsome; settings: probe midazolam, time 20 min, read-out: Activity
Sequence of CYP3A4 (P08684 whole entry): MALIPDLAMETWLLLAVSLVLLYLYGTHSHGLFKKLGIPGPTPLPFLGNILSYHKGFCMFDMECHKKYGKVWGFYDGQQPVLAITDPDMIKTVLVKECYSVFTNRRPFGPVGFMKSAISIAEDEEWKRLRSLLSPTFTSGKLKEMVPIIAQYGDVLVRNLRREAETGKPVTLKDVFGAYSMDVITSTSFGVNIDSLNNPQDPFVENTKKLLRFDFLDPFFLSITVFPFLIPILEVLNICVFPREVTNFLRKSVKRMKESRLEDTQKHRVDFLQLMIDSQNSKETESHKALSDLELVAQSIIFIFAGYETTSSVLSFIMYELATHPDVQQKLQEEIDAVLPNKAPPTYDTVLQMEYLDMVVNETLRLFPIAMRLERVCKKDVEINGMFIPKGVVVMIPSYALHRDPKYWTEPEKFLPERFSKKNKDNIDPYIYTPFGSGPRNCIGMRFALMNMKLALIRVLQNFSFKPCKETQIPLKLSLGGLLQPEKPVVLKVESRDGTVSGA

[8] = Microsomal stability in human liver microsomes assessed as parent compound remaining preincubated for 5 mins followed by NADPH addition measured after 30 mins by LC-MS/MS analysis; format: ADME, Microsome; settings: time 35 min, read-out: Stability
[9] = Microsomal stability in rat liver microsomes assessed as parent compound remaining preincubated for 5 mins followed by NADPH addition measured after 30 mins by LC-MS/MS analysis; format: ADME, Microsome; settings: time 35 min, read-out: Stability
[10] = Microsomal stability in mouse liver microsomes assessed as parent compound remaining preincubated for 5 mins followed by NADPH addition measured after 30 mins by LC-MS/MS analysis; format: ADME, Microsome; settings: time 35 min, read-out: Stability
[11] = biological target: T3, Sphingosine 1-phosphate receptor 4 (Homo sapiens, UniProt O95977); test: Agonist activity at S1P4 (unknown origin) expressed in CHO cells assessed as Ca2+ activation; format: functional, cell-based
T3 sequence (O95977 whole entry): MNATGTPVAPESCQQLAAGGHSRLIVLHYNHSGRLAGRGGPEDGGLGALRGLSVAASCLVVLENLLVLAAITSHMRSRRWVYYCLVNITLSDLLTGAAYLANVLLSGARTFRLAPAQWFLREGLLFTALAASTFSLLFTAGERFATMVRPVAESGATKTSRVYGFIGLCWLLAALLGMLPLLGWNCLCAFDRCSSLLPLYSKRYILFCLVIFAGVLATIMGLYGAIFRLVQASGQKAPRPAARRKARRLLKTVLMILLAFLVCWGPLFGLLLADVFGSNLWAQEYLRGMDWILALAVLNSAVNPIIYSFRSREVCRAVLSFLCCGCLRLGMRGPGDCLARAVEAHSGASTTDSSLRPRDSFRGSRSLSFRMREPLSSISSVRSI

[12] = biological target: Sphingosine 1-phosphate receptor 3 (Homo sapiens, UniProt Q99500); test: Agonist activity at S1P3 (unknown origin) expressed in PathHunter CHO-K1 EDG1 beta-arrestin cells assessed as beta-arrestin recruitment; format: functional, cell-based
Sequence of Sphingosine 1-phosphate receptor 3 (Q99500 whole entry): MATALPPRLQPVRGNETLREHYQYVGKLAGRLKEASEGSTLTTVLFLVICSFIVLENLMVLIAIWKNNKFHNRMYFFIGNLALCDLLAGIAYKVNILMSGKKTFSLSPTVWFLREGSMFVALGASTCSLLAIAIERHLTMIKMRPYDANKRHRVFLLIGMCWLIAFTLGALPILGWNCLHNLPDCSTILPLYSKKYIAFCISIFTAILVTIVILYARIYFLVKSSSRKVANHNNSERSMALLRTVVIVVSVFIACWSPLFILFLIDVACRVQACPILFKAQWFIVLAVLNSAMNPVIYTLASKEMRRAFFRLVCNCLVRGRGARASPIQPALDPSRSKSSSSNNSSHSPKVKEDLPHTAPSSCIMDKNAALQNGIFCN

[13] = biological target: T3, Sphingosine 1-phosphate receptor 4; test: Agonist activity at S1P4 (unknown origin) expressed in PathHunter CHO-K1 EDG1 beta-arrestin cells assessed as beta-arrestin recruitment; format: functional, cell-based
[14] = Tmax in ICR mouse at 10 mg/kg, po measured at 0.25 to 12 hrs by LC-MS/MS analysis; format: ADME, organism-based; settings: in vivo, time 0.25-12 hrs
[15] = Cmax in ICR mouse at 10 mg/kg, po measured at 0.25 to 12 hrs by LC-MS/MS analysis; format: ADME, organism-based; design: time upper 12 hrs, dose 10 mg/kg, time lower 0.25 hrs, route po; settings: in vivo
[16] = Half life in ICR mouse at 1 mg/kg, iv measured at 0.25 to 12 hrs by LC-MS/MS analysis; format: ADME, organism-based; settings: in vivo, time 0.25-12 hrs
[17] = Half life in ICR mouse at 10 mg/kg, po measured at 0.25 to 12 hrs by LC-MS/MS analysis; format: ADME, organism-based; settings: in vivo, time 0.25-12 hrs
[18] = AUClast in ICR mouse at 1 mg/kg, iv measured at 0.25 to 12 hrs by LC-MS/MS analysis; format: ADME, organism-based; design: time lower 0.25 hrs, dose 1 mg/kg, time upper 12 hrs, route iv; settings: in vivo
[19] = AUClast in ICR mouse at 10 mg/kg, po measured at 0.25 to 12 hrs by LC-MS/MS analysis; format: ADME, organism-based; design: time 0.25-12 hrs, dose 10 mg/kg, route po; settings: in vivo
[20] = Observed clearance in ICR mouse at 1 mg/kg, iv measured at 0.25 to 12 hrs by LC-MS/MS analysis; format: ADME, organism-based; settings: in vivo, time 0.25-12 hrs
[21] = Observed MRT (infinitive) in ICR mouse at 10 mg/kg, po measured at 0.25 to 12 hrs by LC-MS/MS analysis; format: ADME, organism-based; settings: in vivo, time 0.25-12 hrs
[22] = Observed MRT (infinitive) in ICR mouse at 1 mg/kg, iv measured at 0.25 to 12 hrs by LC-MS/MS analysis; format: ADME, organism-based; settings: in vivo, time 0.25-12 hrs
[23] = Observed volume of distribution at steady state in ICR mouse at 1 mg/kg, iv measured at 0.25 to 12 hrs by LC-MS/MS analysis; format: ADME, organism-based; settings: in vivo, time 0.25-12 hrs, read-out: Vdss
[24] = Oral bioavailability in ICR mouse at 10 mg/kg measured at 0.25 to 12 hrs by LC-MS/MS analysis; format: ADME, organism-based; settings: in vivo, time 0.25-12 hrs
Mus musculus = test: In vivo agonist activity at S1P1 in mouse assessed as reduction in peripheral lymphocyte count at 10 mg/kg, po measured at 3 hrs; format: functional, organism-based

T1 sequence (P21453 whole entry): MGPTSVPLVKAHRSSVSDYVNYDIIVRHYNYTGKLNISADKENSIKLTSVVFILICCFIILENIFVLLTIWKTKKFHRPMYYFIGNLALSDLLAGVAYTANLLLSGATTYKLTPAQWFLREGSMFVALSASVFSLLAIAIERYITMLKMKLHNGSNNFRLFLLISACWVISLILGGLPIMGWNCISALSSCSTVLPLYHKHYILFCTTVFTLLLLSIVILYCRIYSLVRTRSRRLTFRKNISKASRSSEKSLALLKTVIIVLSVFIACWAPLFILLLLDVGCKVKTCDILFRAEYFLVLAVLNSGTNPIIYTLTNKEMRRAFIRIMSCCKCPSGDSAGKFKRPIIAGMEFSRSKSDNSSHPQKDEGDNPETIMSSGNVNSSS

SMILES	Activity ([1]; filed as agonist)	EC50 [2]	Activity [3]	EC50 [4]	remaining at 1 h [5]	remaining at 1 h [6]	remaining at 1 h [7]	activity at 0.25 h, 10 µM (CYP1A2)	activity at 0.25 h, 10 µM (CYP2C9)	activity at 0.25 h, 10 µM (CYP2D6)	activity at 0.25 h, 10 µM (CYP3A4)	Activity [1]	remaining at 0.5 h [8]	remaining at 0.5 h [9]	remaining at 0.5 h [10]	also measured
CC(C)Oc1ccc(COc2ccc3c(c2)CCCN(S(=O)(=O)CCCO)C3)cc1C#N	69%	502 nM	81%	94.7 nM	16.2%	113%	8.7%	100%	67.7%	89.4%	82.4%	–	–	–	–	–
CC(C)Oc1ccc(COc2ccc3c(c2)CCN(C(=O)CCC(=O)N(C)C)C3)cc1C#N	–	–	76%	567 nM	–	–	–	–	–	–	–	25%	24.4%	13.9%	11.4%	–
CC(C)Oc1ccc(COc2ccc3c(c2)CCN(S(=O)(=O)CCC(=O)N(C)C)C3)cc1C#N	–	–	98%	453 nM	–	–	–	–	–	–	–	4%	18.9%	18.7%	14.1%	–
CNC(=O)CCS(=O)(=O)N1CCc2cc(OCc3ccc(OC(C)C)c(C#N)c3)ccc2C1	–	–	107%	362 nM	–	–	–	–	–	–	–	4%	21.9%	13.4%	15.8%	–
CCCCCCCCCCCCC/C=C/[C@@H](O)[C@@H](N)COP(=O)(O)O	–	–	–	–	–	–	–	–	–	–	–	–	–	–	–	EC50 [11]: 9 nM; EC50 [12]: 22 nM; EC50 [13]: 92 nM
CC(C)Oc1ccc(COc2ccc3c(c2)CCN(C(=O)CCNS(C)(=O)=O)C3)cc1C#N	–	–	122%	252 nM	–	–	–	–	–	–	–	23%	29.7%	41.7%	42.8%	–
CC(C)Oc1ccc(COc2ccc3c(n2)CCN(S(=O)(=O)CCC(=O)O)C3)cc1C#N	82%	226 nM	82%	289 nM	–	–	–	84.5%	80.1%	85.3%	85.4%	–	96%	98.1%	94.2%	–
CC(C)Oc1ccc(COc2ccc3c(c2)CCN(C(=O)CCC(=O)O)C3)cc1C#N	79%	275 nM	81%	455 nM	–	–	–	59.7%	27.6%	54.9%	26.3%	–	94.3%	92.1%	100%	–
CC(C)Oc1ccc(COc2ccc3c(c2)CCN(S(=O)(=O)CCC(=O)O)C3C)cc1C#N (stereo unspecified)	–	–	77%	795 nM	100%	90.8%	89.7%	93.2%	78.4%	87.6%	92%	8%	–	–	–	–

Second part, led by results:

Activity ([1]; filed as agonist)	EC50 [2]	Activity [3]	EC50 [4]	remaining at 1 h [5]	remaining at 1 h [6]	remaining at 1 h [7]	activity at 0.25 h, 10 µM (CYP1A2)	activity at 0.25 h, 10 µM (CYP2C9)	activity at 0.25 h, 10 µM (CYP2D6)	activity at 0.25 h, 10 µM (CYP3A4)	Activity [1]	remaining at 0.5 h [8]	remaining at 0.5 h [9]	remaining at 0.5 h [10]	SMILES	also measured
68%	618 nM	116%	11.1 nM	15.2%	13.1%	10.7%	85.1%	53.7%	79.1%	84.7%	–	–	–	–	CC(C)Oc1ccc(COc2ccc3c(c2)CCCN(S(=O)(=O)CCO)C3)cc1C#N	–
94%	46.3 nM	94%	25.3 nM	90.9%	73.6%	85.1%	86.9%	86.1%	89.4%	87.7%	–	–	–	–	CC(C)Oc1ccc(COc2ccc3c(c2)CCCN(S(=O)(=O)CC(=O)O)C3)cc1C#N	–
46%	–	92%	73.7 nM	17.5%	6.8%	9.3%	70.2%	57.2%	75.6%	92.7%	–	–	–	–	CC(C)Oc1ccc(COc2ccc3c(c2)OCCN(S(=O)(=O)CCCO)C3)cc1C#N	–
104%	67 nM	91%	50.5 nM	97.1%	99.6%	87.7%	88.1%	87%	91.1%	84.6%	–	–	–	–	CC(C)Oc1ccc(COc2ccc3c(c2)OCCN(S(=O)(=O)CC(=O)O)C3)cc1C#N	–
100%	14 nM	125%	50 nM	–	–	–	80.4%	75.4%	91.9%	87.5%	–	90.2%	93.8%	100%	CC(C)Oc1ccc(COc2ccc3c(c2)CCN(S(=O)(=O)CCC(=O)O)C3)cc1C#N	Tmax [14]: 0.5 h; Cmax [15]: 2290 ng/mL; half-life [16]: 2.4 h; half-life [17]: 1.3 h; AUC(0-t) [18]: 925 ng·h/mL; AUC(0-t) [19]: 4290 ng·h/mL; clearance [20]: 18.2 mL/min/kg; MRT inf [21]: 1.9 h; MRT inf [22]: 1 h; Vd [23]: 1.1 L/kg; bioavailability [24]: 46.4%; Activity (Mus musculus): Active
